The values that follow come from patent EP4799617A1, “PHARMACEUTICAL COMPOSITION HAVING JAK INHIBITORY EFFECT” (Orxes Chinese Medicine (Shanghai) Co., Ltd., priority 2024, dated 2025).

Assay [1] concerns mice with cyclophosphamide-induced alopecia areata. In words: Hair length (vernier caliper) and hair weight (balance) after the final administration. It counts as in vivo. The following applies: gavage once daily, after final administration (Day 28); for Hair length: CP-induced alopecia areata mice; for Hair weight: regrown hair of depilated area. The protocol: (§1) 60 male C57/BL-6 mice aged 6-8 weeks were evenly divided into 6 groups with 10 mice per group. These groups were: a control group, a model group, a CE (15 mg/kg) group, a CE (30 mg/kg) group, a BT (1 mg/kg) group, and a CE+BT (15+0.5 mg/kg) group. After 1 week of normal feeding, the dorsal hair of the mice was shaved using a depilatory device to prepare the skin (2×3 cm^2). Then, depilatory cream was applied to the prepared skin area to ensure complete removal of the hair on the back of the mice. From the day after depilation, each group of mice was administered once daily by gavage.
(§2) On Day 9 of administration in the aforementioned experiment, cyclophosphamide (abbreviated as CP) was intraperitoneally injected to each mouse in the model group (not administered with CE and/or BT), the CE (15 mg/kg) group, the CE (30 mg/kg) group, the BT (1 mg/kg) group, and the CE+BT (15+0.5 mg/kg) group to establish the AA model. The method for establishing the model is described in the literature: "Effect of CeO2 Nanoenzyme on Hair Growth of Mice with Cyclophosphamide-Induced Alopecia Areata", PENG Xinxin et al., J Shanxi Med Univ, Feb. 2024, Vol. 55, No. 2, p.192.
After the final administration (on Day 28), the length of dorsal hair of the mice in each group was measured using a vernier caliper. Subsequently, the regrown hair in the original depilated area was removed using a depilatory device, and was weighed using a balance. Table 2 Effects of CE, BT and CE+BT on hair length and hair weight in the mice with cyclophosphamide-induced alopecia areata

Assay [2] has the same test system. Briefly: Preventive effect on hair loss in cyclophosphamide-induced alopecia areata (dorsal images). The settings on record: gavage, Day 7 after CP injection, versus model group. Format: in vivo. As for the experimental part: as §2
Whether the model has been successfully established was determined by observing the hair loss in each group of mice, wherein the onset of hair loss indicated the successful model establishment.
Images of the dorsal region of the mice were captured on Day 9 of administration (Day 0 after CP injection), Day 14 (Day 5after CP injection), and Day 16 (Day 7 after CP injection). In Figure 2, gavage administration was used for administering CE and/or BT to the mice in the CE (15 mg/kg) group, the CE (30 mg/kg) group, the BT (1 mg/kg) group, and the CE+BT (15+0.5 mg/kg) group; and intraperitoneal injection was used for administering CP to the mice in the model group, the CE (15 mg/kg) group, the CE (30 mg/kg) group, the BT (1 mg/kg) group, and the CE+BT (15+0.5 mg/kg) group. […]

In assay [3] the test system is JAK3/STAT3 signaling pathway. Briefly: Western blotting of p-JAK3/JAK3 and p-STAT3/STAT3 in mouse skin tissue. The following applies: Western blot gray values, versus model group. It counts as in vivo, mice. The protocol:
The expression levels of p-JAK3/JAK3 and p-STAT3/STAT3 proteins were detected by Western blotting using the half of the skin samples that were stored in the freezer at -80°C as described in Example 2. • p-JAK3: purchased from Absin, Cat No.: abs139988; • JAK3: purchased from Absin, Cat No.: abs115170; • p-STAT3: purchased from Absin, Cat No.: abs130919; • STAT3: purchased from Absin, Cat No.: abs155916.
The mouse skin samples stored at -80°C were taken out. 50 mg of skin tissue was cut with surgical scissors from each sample and respectively placed into 2 mL EP tubes. 500 µL of RIPA lysis buffer (available from Servicebio, Cat No.: G2002-100ML) (containing 5µL of protease inhibitor PMSF, available from Servicebio, Cat No.: G2008-1ML) was added to each EP tube. The skin was then disrupted by a cell grinding rod that is inserted into the 2 mL EP tube. […]
The total protein concentration in the supernatant was determined using a BCA kit (G2026-200T, Servicebio) following the protocol in the instruction manual. […]
The previously prepared resolving gel and stacking gel were clamped onto the main body of the gel-casting apparatus, with the stacking gel on the top and the resolving gel on the bottom. […] The gel casting apparatus was then disassembled and placed in the transfer buffer (Cat No.: G2028-1L, available from Servicebio) to be ready for subsequent membrane transfer procedure. […]

The test system of a further assay is C57/BL-6 mice. In words: Hair growth of depilated mice after 9 days of gavage administration (dorsal images, hair score by IMAGE J). It counts as in vivo. The settings on record: first 9 days after depilation. As for the experimental part: as §1
The substances to be administered were prepared as follows: The aqueous solution of 0.5% sodium carboxymethylcellulose: First, 0.5 g of sodium carboxymethylcellulose powder was added to 100 mL of distilled water, and then the mixture was placed in a water bath and heated at 60-70 °C. […]
Images of the dorsal region of the mice were captured at key time points of hair growth (i.e. Day 0 and Day 9), respectively. In addition, the gray values in the depilated areas on the dorsal region of the mice in Figure a were analyzed using IMAGE J software (National Institutes of Health, USA) to obtain hair scores. In Figure b, the hair scores represent the quantified gray values of the hair on the back skin of the mice.

In assay [1] (BT 1 mg/kg), `CCS(=O)(=O)N1CC(CC#N)(n2cc(-c3ncnc4[nH]ccc34)cn2)C1` [BT, baricitinib] gave a Hair length of 6.51±0.61 mm and a Hair weight of 38.62 ± 6.02 mg.

For the compound `C[C@@H]1CC[C@H]2C(C)(C)[C@H]3C[C@@]12CC[C@@]3(C)O` [CE, cedrol], the hair loss entry in assay [2] (CE 15 mg/kg) and in assay [2] (CE 30 mg/kg) was “significantly better than that of the model group” in each case. Also, the “relative viabilities of p-JAK3/JAK3 and p-STAT3/STAT3” value in assay [3] (CE 15 mg/kg) and in assay [3] (CE 30 mg/kg) was “significantly different from that in the model group” each time. The hair growth result with C57/BL-6 mice (CE 15 mg/kg) and with C57/BL-6 mice (CE 30 mg/kg) was “significant hair growth” in each case. Further, the Hair length is listed as 5.98±1.22 mm in assay [1] (CE 15 mg/kg) and 6.78±1.32 mm in assay [1] (CE 30 mg/kg). In addition, the Hair weight was 35.38 ± 6.88 mg in assay [1] (CE 15 mg/kg) and 43.51 ± 6.45 mg in assay [1] (CE 30 mg/kg).
